Laboratory results: ChEMBL document CHEMBL1141258, “Prismatomerin, a new iridoid from Prismatomeris tetrandra. Structure elucidation, determination of absolute configuration, and cytotoxicity” (J Nat Prod, 2007)
≈ marks a conversion by molar mass, not a printed value.

What was measured:
L929 = test: Antiproliferative activity against mouse L929 cells after 5 days by SRB assay; format: cell-based; settings: L929, 120 h
[1] = Antiproliferative activity against human KB31 cells after 5 days by MTT assay; settings: KB 3-1, 120 h
A549 = test: Antiproliferative activity against human A549 cells after 5 days by MTT assay; settings: A549, 120 h
SW480 = test: Antiproliferative activity against human SW480 cells after 5 days by MTT assay; settings: SW480, 120 h
[2] = Toxicity in brine shrimp after 24 hrs; format: organism-based; settings: artemia, in vivo; read-out: LD50
[3] = Toxicity in brine shrimp after 48 hrs; format: organism-based; settings: artemia, in vivo; read-out: LD50

IC50 (A549) [nM]	IC50 (SW480) [nM]	Compound	IC50 (L929) [nM]	IC50 [1] [nM]	LC50 at 24 h [2] [µg/mL]	LC50 at 48 h [3] [nM]
1600	84	COC(=O)C1=CO[C@@H]2O[C@H]3/C(=C\c4ccc(OC(C)=O)cc4)C(=O)O[C@]34C=C[C@H]1[C@H]24	410	350	–	–
–	–	COC(=O)C1=CO[C@H](O[C@@H]2O[C@H](CO)[C@@H](O)[C@H](O)[C@H]2O)[C@H]2[C@@H]1C=C[C@@]21C=C(C(O)c2ccc(O)cc2)C(=O)O1 (stereo partly specified) [GAERTNEROSIDE]	–	–	0.38 (≈ 0.693 µM)	224
